Test results: US20110045103A1, “METHODS FOR TREATING AIDS” (priority 2009, published 2011)

Assays:
[1] = test system: human immunodeficiency virus (HIV) Type I, strain HTLV-IIIB; experiment: Virucidal efficacy assay: virus suspension exposed to test composition, then titered by infectivity (CPE) in MT-2 cells; type: cell-based, HIV Type 1
Experimental: Composition Tested: A 20 mL vial of ammonium chloride (100 mEq/5 mL) was dissolved into a 1 liter bag of 0.9% sodium chloride injection USP (9 g/L sodium chloride; osmolarity of 308 mOsmol/L; 154 mEq/L sodium; 154 mEq/L chloride). The contents of the bag were transferred to a sterile glass bottle. The solution was equilibrated to room temperature prior to use.
Virus: human immunodeficiency virus (HIV) Type I, strain HTLV-IIIB, was obtained from Advanced Biotechnologies, Inc., Columbia, Md. Stock virus was prepared by collecting the supernatant culture fluid from infected culture cells. The cells were disrupted and cell debris removed by centrifugation at approximately 2200 RPM for ten minutes at room temperature. The supernatant was removed, aliquoted, and the high titer stock virus was stored at ≦−70° C. until the day of use. On the day of use, an aliquot of stock virus was removed, thawed, and maintained at a refrigerated temperature until used in the assay. The stock virus culture was adjusted to contain 5% fetal bovine serum as the organic soil lead.
(§1) Test Cultures: MT-2 cells (human T-cell leukemia cells) were obtained through the AIDS Research and Reference Reagent Program, Division of AIDS, NIAID, NIH from Dr. Douglas Richman. Cultures were maintained and used in suspension in tissue culture labware at 36-38° C. in a humidified atmosphere of 5-7% CO2.
Test Medium: The test medium used for the assay was RPMI 1640 supplemented with 10% (v/v) heat-inactivated fetal bovine serum (FBS). The medium was also supplemented with 2.0 mM L-glutamine and 50 μg/mL gentamicin.
Treatment of Virus Suspension: A 1.80 mL aliquot of the test substance was dispensed into a sterile tube and mixed with a 0.2 mL aliquot of the stock virus suspension. The mixture was vortex mixed for 10 seconds and held for the remainder of the specified exposure time at 37.0° C. The exposure time was ten minutes. Following the exposure time, a 0.1 mL aliquot was removed from the tube and the mixture was immediately titered by 10-fold serial dilution (0.1 mL+0.9 mL test medium) and assayed for the presence of virus in MT-2 cells. To decrease the test substance cytotoxicity, the first dilution was made in FBS with the remaining dilutions in test medium.
Treatment of Virus Control: A 0.2 mL aliquot of stock virus suspension was exposed to a 1.80 mL aliquot of test medium, in lieu of test substance, and treated as previously described. Following the exposure time, a 0.1 mL aliquot was removed from the tube and the mixture was immediately titered by 10-fold serial dilution (0.1 mL+0.9 mL test medium) and assayed for the presence of virus in MT-2 cells. All controls employed the FBS neutralizer as described in the Treatment of Virus Suspension section above. The virus control titer was used as a baseline to compare the percent and log reductions of the test parameter following exposure to the test substance.
Cells in the multiwall culture dishes were inoculated in quadruplicate with 0.2 mL of the dilutions prepared from test and control groups. Uninfected indicator cell cultures (cell controls) were inoculated with test medium alone. The cultures were incubated at 36-38° C. in a humidified atmosphere of 5-7% CO2 in sterile disposable cell culture labware. The cultures were scored periodically for eight days for the absence or presence of CPE, cytotoxicity, and for viability.
(§2) Data analysis: Viral and cytotoxicity titers are expressed as −log 10 of the 50 percent titration endpoint for infectivity (TCID50) or cytotoxicity (TCD50), respectively, as calculated by the method of Spearman Karber: […]
Calculation of Percent (%) Reduction:
Calculation of Log Reduction:
TCID50 of the virus control—TCID50 of the test substance=Log reduction Study Acceptance Criteria: A valid test required the following: (1) that stock virus be recovered from the virus control; (2) that the cell controls be negative for virus; and (3) that negative cultures are viable.

[2] = test system: MT-2 cells (human T-cell leukemia cells); experiment: Cytotoxicity control of the virucidal assay; type: cell-based; conditions: ten minute exposure
Experimental: as §1
Cytotoxicity Control: A 1.80 mL aliquot of the test substance was mixed with a 0.2 mL aliquot of test medium containing the BSA organic soil load, in lieu of virus, and treated as previously described. The cytotoxicity control was held for the ten minute exposure time. […] The cytotoxicity of the MT-2 cell cultures was scored at the same time as virus-test substance and virus control cultures. Cytotoxicity was graded on the basis of cell viability as determined microscopically. […]
Cells in the multiwall culture dishes were inoculated in quadruplicate with 0.2 mL of the dilutions prepared from test and control groups. […] The cultures were scored periodically for eight days for the absence or presence of CPE, cytotoxicity, and for viability.
as §2

[3] = ten minute exposure at 37° C., 5% fetal bovine serum, compared to virus control

Cl.N [Ammonium Chloride, ammonium chloride]
Presence of test virus, four cultures ([1]; dilution 10^-2, after ten minute exposure): + + + +
Presence of test virus, four cultures ([1]; dilution 10^-3, after ten minute exposure): + + + +
Presence of test virus, four cultures ([1]; dilution 10^-4, after ten minute exposure): + + + +
Log10 Reduction in viral titer [1, 3]: 1.0 Log10
Percent Reduction in viral titer [1, 3]: 90.0%
Percent Reduction in viral titer ([1]; ten minute exposure at 37° C., 5% fetal bovine serum, compared to virus control, listed as ammonium chloride): 90%
test virus infectivity detected in the virus-test substance mixture ([1]; ten minute exposure at 37° C., virus control titer 6.0 log 10): 5.0 log 10
Test substance cytotoxicity (not observed at any dilution tested) [2]: ≤ 1.5 log 10
